In paper PMC10698194 (Nature Communications, 2023):
Several values for one entry are separate records, joined by “and”; a condition that tells them apart may be missing. Equal values may be shown once. Read-outs that look alike come from different tables or passages of the source. Bridge positions count the residues as written; N and C are the ends. Square brackets hold non-standard residues; d marks the D form. Peptide text beside a SMILES is read from it. * marks the point of attachment. X1 = C=CCN1CC[C@]23c4c5ccc(O)c4O[C@H]2[C@H](N*)CC[C@@]3(O)[C@H]1C5

Assays:
human KOR I316A = target: T1, human KOR I316A (Homo sapiens, UniProt P41145, I316A); assay: BRET β-arrestin-2 biosensor assay; type: cell-based
T1 construct: FLAG; expressed in transfected cells; host or cells: HEK293 / HEK293T, transient

human KOR E209A = target: T2, human KOR E209A (Homo sapiens, UniProt P41145, E209A); type: cell-based; conditions: HEK-293T, KOR E209A
T2 construct: FLAG; expressed in transfected cells; host or cells: HEK293 / HEK293T, transient

male SWISS mice [1] = assay: Paw thickness 60 min after formalin injection; type: in vivo, mouse; conditions: for Paw thickness: individual mice, listed as DNCP-ß-NalA (1)
Description: Sixty min after injection of formalin to male mice, maximal paw thickness of the right hind paw (i.e., formalin-injected hind paw) was measured using a digital micrometer (FixPoint, Vienna, Austria). Data are expressed in mm.

mouse KOR, GαoB = mouse KOR, GαoB (Mus musculus, UniProt P33534); assay: TRUPATH BRET G protein assay, GαoB; type: cell-based; conditions: read-out: Emax (%) GαoB
human KOR [2] = target: T3, human KOR (Homo sapiens, UniProt P41145); assay: cell-based; design: expressed in transfected cells; host or cells: HEK293, transient; conditions: HEK293, read-out: Emax β-arrestin-1 recruitment
male SWISS mice [3] = assay: Formalin test (pain behavior, phase II); type: in vivo, mouse; conditions: for Formalin test (duration of pain behaviour): individual mice, listed as DNCP-ß-NalA (1)
mouse KOR, Gαi3 = mouse KOR, Gαi3 (Mus musculus, UniProt P33534); assay: TRUPATH BRET G protein assay, Gαi3; type: cell-based; conditions: read-out: Emax (%) Gαi3
human MOR = target: T4, human MOR (Homo sapiens, UniProt P35372); assay: Schild regression vs DAMGO in [35S]GTPγS binding assay, CHO membranes; type: biochemical; conditions: for log (A'/A-1): Schild plot Figure S14d
T4 construct: expressed in transfected cells

mouse KOR, Gαz = mouse KOR, Gαz (Mus musculus, UniProt P33534); assay: TRUPATH BRET G protein assay, Gαz; type: cell-based; conditions: Gαz subtype
human KOR WT = target: T5, human KOR WT (Homo sapiens, UniProt P41145); assay: BRET β-arrestin-2 biosensor assay; type: cell-based; conditions: KOR WT
T5 construct: FLAG; expressed in transfected cells; host or cells: HEK293T, transient

human KOR H304A = target: T6, human KOR H304A (Homo sapiens, UniProt P41145, H304A); assay: BRET β-arrestin-2 biosensor assay; type: cell-based
T6 construct: FLAG; expressed in transfected cells; host or cells: HEK293T

human KOR Y320A = target: T7, human KOR Y320A (Homo sapiens, UniProt P41145, Y320A); assay: BRET β-arrestin-2 biosensor assay; type: cell-based
T7 construct: FLAG; expressed in transfected cells; host or cells: HEK293 / HEK293T, transient

mouse MOR = target: T8, mouse MOR (Mus musculus, UniProt P42866); assay: Schild regression vs DAMGO in cAMP assay, HEK293 cells; type: cell-based; conditions: for log (A'/A-1): Schild plot Figure S14c; for average functional affinity: from pA2
T8 construct: expressed in transfected cells

human KOR K227A [4] = target: T9, human KOR K227A (Homo sapiens, UniProt P41145, K227A); assay: BRET β-arrestin-2 biosensor assay; type: cell-based
T9 construct: FLAG; expressed in transfected cells; host or cells: HEK293 / HEK293T, transient

human KOR D138A = target: T10, human KOR D138A (Homo sapiens, UniProt P41145, D138A); assay: cAMP inhibition assay normalized to salvinorin A; type: cell-based
T10 construct: expressed in transfected cells

human KOR F293A = target: T11, human KOR F293A (Homo sapiens, UniProt P41145, F293A); type: cell-based; conditions: HEK-293T
T11 construct: FLAG; expressed in transfected cells; host or cells: HEK293 / HEK293T, transient

human KOR Q115A = target: T12, human KOR Q115A (Homo sapiens, UniProt P41145, Q115A); type: cell-based; conditions: HEK-293T
T12 construct: FLAG; expressed in transfected cells; host or cells: HEK293 / HEK293T, transient

human KOR [5] = target: T3, human KOR; assay: [35S]GTPγS binding assay, CHO membranes; type: biochemical; design: expressed in transfected cells
human KOR Y312A = target: T13, human KOR Y312A (Homo sapiens, UniProt P41145, Y312A); assay: BRET β-arrestin-2 biosensor assay; type: cell-based
T13 construct: FLAG; expressed in transfected cells; host or cells: HEK293T

human KOR I135A = target: T14, human KOR I135A (Homo sapiens, UniProt P41145, I135A); type: cell-based; conditions: HEK-293T
T14 construct: FLAG; expressed in transfected cells; host or cells: HEK293 / HEK293T, transient

mouse KOR = mouse KOR (Mus musculus, UniProt P33534); assay: cell-based; design: expressed in transfected cells; conditions: HEK-293T, read-out: Emax cAMP assay
human KOR E297A = target: T15, human KOR E297A (Homo sapiens, UniProt P41145, E297A); assay: BRET β-arrestin-2 biosensor assay; type: cell-based; conditions: KOR E297A
T15 construct: FLAG; expressed in transfected cells; host or cells: HEK293T

[6] = Serum stability assay (HPLC)
Description: Blood was drawn from healthy volunteers devoid of any medication for 14 days from the antecubital vein using 21 G needles and collected in a serum clot activator tube (4 mL tubes, Greiner bio-one). […] Volunteers gave written informed consent before blood donation. […] Blood samples were collected into Vacuette® clot activator tubes (Greiner Bio-One, Austria). After clotting of about 2 h, the samples were centrifuged at 2200 × g for 15 min at 22 °C. The serum was removed and centrifuged again to remove lipids and cell particles at 16,000 × g at 4 °C for 20 min. […] The samples were incubated at 37 °C under continuous shaking at 300 rotations-per-minute. […] The samples were mixed well and incubated on ice for 10 min. For the protein precipitation, 30 µL of a 20% (w/v) trichloroacetic acid was added and incubated on ice for 15 min. The clear supernatant was harvested by centrifugation at 16,000 × g at 4 °C for 20 min and this sample was used for HPLC analysis. The chromatography HPLC system was a ThermoFisher Ultimate 3000 equipped with a pump, autosampler and single wavelength detector. […] The remaining peptide was calculated relative to the AUC at time point zero. The data points were fitted to a one-phase decay function and to determine the resulting half-life of the peptide in serum.
0.1% trifluoroacetic acid in water and acetonitrile/water trifluoroacetic acid 90/10/0.1% (v/v/v) with a
linear separation gradient over 30 min.

human KOR K227A [7] = target: T9, human KOR K227A; type: cell-based; conditions: HEK-293T
human KOR M142A = target: T16, human KOR M142A (Homo sapiens, UniProt P41145, M142A); assay: BRET β-arrestin-2 biosensor assay; type: cell-based
T16 construct: FLAG; expressed in transfected cells; host or cells: HEK293 / HEK293T, transient

mouse KOR, Gαi1 = mouse KOR, Gαi1 (Mus musculus, UniProt P33534); assay: TRUPATH BRET G protein assay, Gαi1; type: cell-based; conditions: read-out: Emax (%) Gαi1
[8] = nor-BNI 13.6 µmol kg^−1 s.c. pretreatment
[9] = authors' response in peer review file

T13 sequence (P41145 whole entry Y312A): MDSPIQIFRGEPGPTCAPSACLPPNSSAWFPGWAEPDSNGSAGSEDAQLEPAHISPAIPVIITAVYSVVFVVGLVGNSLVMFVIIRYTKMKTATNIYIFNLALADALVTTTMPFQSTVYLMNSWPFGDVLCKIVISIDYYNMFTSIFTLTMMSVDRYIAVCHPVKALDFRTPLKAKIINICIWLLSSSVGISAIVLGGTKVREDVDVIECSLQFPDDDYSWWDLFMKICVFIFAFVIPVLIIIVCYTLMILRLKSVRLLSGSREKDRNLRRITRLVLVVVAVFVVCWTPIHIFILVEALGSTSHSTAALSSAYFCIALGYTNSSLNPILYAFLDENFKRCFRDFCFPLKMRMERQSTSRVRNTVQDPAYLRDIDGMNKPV
T8 sequence (P42866 whole entry): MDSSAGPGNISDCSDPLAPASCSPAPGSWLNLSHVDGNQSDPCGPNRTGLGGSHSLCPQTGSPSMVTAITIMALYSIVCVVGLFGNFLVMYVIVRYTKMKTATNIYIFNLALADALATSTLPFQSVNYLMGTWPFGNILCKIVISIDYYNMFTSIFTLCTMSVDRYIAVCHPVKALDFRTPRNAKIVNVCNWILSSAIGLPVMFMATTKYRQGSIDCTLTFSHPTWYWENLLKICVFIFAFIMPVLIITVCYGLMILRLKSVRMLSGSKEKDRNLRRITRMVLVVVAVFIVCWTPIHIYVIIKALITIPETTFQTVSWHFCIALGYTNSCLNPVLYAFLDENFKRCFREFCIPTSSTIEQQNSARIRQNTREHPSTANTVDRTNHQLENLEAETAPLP
T4 sequence (P35372 whole entry): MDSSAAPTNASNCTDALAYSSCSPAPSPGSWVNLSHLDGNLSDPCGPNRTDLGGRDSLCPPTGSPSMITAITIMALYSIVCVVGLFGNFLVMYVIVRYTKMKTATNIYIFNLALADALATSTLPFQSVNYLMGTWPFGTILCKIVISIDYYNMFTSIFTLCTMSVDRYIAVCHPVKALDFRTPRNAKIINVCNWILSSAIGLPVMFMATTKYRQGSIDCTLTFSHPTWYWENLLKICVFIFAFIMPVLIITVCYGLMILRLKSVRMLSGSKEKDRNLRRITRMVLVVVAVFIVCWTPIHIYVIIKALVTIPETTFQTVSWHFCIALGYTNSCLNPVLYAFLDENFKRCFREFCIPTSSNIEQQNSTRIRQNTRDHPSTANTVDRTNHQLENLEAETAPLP
T9 sequence (P41145 whole entry K227A): as the sequence (P41145 whole entry Y312A) above, with K227A, A312Y counted along it
T10 sequence (P41145 whole entry D138A): as the sequence (P41145 whole entry Y312A) above, with D138A, A312Y counted along it
T3 sequence (P41145 whole entry): as the sequence (P41145 whole entry Y312A) above, with A312Y counted along it
T1 sequence (P41145 whole entry I316A): as the sequence (P41145 whole entry Y312A) above, with A312Y, I316A counted along it
T2 sequence (P41145 whole entry E209A): as the sequence (P41145 whole entry Y312A) above, with E209A, A312Y counted along it
T15 sequence (P41145 whole entry E297A): as the sequence (P41145 whole entry Y312A) above, with E297A, A312Y counted along it
T12 sequence (P41145 whole entry Q115A): as the sequence (P41145 whole entry Y312A) above, with Q115A, A312Y counted along it
T7 sequence (P41145 whole entry Y320A): as the sequence (P41145 whole entry Y312A) above, with A312Y, Y320A counted along it
T16 sequence (P41145 whole entry M142A): as the sequence (P41145 whole entry Y312A) above, with M142A, A312Y counted along it
T11 sequence (P41145 whole entry F293A): as the sequence (P41145 whole entry Y312A) above, with F293A, A312Y counted along it
Sequence of mouse KOR (P33534 whole entry): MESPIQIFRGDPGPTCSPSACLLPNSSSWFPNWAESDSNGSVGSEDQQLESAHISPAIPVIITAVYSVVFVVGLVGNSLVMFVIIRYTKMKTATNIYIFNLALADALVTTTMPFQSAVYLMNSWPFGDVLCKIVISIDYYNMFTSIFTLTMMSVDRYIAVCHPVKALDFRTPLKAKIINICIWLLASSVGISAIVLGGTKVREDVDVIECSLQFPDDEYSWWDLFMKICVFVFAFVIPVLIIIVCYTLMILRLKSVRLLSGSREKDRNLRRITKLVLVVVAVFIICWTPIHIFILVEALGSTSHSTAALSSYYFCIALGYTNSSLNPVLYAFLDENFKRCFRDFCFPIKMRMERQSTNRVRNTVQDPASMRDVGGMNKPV
Sequence of mouse KOR, Gαz (P33534 whole entry): as above
Sequence of mouse KOR, Gαz (P19086 2-355 partner): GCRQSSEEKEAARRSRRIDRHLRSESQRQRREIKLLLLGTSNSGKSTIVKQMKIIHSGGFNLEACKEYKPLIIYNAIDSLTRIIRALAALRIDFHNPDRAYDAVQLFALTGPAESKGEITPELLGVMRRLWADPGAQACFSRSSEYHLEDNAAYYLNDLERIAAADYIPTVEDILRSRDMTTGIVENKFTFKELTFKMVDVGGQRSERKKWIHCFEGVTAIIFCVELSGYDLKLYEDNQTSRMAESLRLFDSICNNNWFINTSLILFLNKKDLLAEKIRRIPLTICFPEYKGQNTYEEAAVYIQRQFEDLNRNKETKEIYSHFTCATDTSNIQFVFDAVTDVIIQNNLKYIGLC
Sequence of mouse KOR, Gαi3 (P33534 whole entry): as the sequence (P33534 whole entry) above
Sequence of mouse KOR, Gαi3 (P08754 2-354 partner): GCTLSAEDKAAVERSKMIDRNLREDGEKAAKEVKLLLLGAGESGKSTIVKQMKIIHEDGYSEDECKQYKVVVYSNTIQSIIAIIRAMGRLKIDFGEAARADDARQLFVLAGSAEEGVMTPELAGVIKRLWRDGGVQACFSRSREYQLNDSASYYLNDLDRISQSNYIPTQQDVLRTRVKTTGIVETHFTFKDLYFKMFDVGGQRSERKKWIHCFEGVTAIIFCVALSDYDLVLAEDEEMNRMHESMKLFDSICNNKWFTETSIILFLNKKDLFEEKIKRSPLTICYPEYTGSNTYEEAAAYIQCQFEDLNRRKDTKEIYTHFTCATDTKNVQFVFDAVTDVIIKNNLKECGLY
Sequence of mouse KOR, GαoB (P33534 whole entry): as the sequence (P33534 whole entry) above
Sequence of mouse KOR, GαoB (P09471 2-354 partner): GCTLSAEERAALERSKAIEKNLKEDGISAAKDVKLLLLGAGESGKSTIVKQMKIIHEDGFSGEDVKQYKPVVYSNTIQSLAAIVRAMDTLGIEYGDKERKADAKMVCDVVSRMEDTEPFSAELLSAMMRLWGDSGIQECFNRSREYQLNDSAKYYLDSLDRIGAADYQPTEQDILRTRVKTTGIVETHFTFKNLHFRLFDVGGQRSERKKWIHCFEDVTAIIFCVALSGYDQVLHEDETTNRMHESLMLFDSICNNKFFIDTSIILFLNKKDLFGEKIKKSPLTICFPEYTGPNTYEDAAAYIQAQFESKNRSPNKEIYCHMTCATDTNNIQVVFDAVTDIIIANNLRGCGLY
Sequence of mouse KOR, Gαi1 (P33534 whole entry): as the sequence (P33534 whole entry) above
Sequence of mouse KOR, Gαi1 (P63096 2-354 partner): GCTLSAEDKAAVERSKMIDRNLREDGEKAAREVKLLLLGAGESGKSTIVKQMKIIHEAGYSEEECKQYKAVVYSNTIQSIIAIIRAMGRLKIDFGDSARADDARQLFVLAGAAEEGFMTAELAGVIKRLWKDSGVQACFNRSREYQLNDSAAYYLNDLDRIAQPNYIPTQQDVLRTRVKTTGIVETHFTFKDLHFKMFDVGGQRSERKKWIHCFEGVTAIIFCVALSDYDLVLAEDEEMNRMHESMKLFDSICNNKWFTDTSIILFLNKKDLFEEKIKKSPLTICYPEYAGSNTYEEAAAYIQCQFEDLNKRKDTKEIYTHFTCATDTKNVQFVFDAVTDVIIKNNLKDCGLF
T14 sequence (P41145 whole entry I135A): as the sequence (P41145 whole entry Y312A) above, with I135A, A312Y counted along it
T6 sequence (P41145 whole entry H304A): as the sequence (P41145 whole entry Y312A) above, with H304A, A312Y counted along it
T5 sequence (P41145 whole entry): as the sequence (P41145 whole entry Y312A) above, with A312Y counted along it

C=CCN1CC[C@]23c4c5ccc(O)c4O[C@H]2[C@H](NC(=O)[C@@H](Cc2ccccc2)NC(=O)[C@@H](NC(=O)[C@@H]2CSCC(=O)N[C@@H](Cc4ccc(O)cc4)C(=O)N[C@@H](C)C(=O)N[C@H](Cc4ccc(O)cc4)C(=O)N[C@@H]([C@@H](C)O)C(=O)N[C@@H]([C@@H](C)O)C(=O)N2)[C@@H](C)O)CC[C@@]3(O)[C@H]1C5 [DNCP-β-NalA(1)] ({CH2CO}-YA[dY]TTCT[dF]-X1; thioether N-6)
Emax (human KOR I316A): 22.7 ± 1.59%
Emax (human KOR E209A): 99.31 ± 0.52%
Paw thickness (male SWISS mice [1]; 0.8 µmol/kg): 3.47 mm and 4.51 mm and 3.9 mm and 4.44 mm and 3.64 mm and 4.36 mm
reduction of paw thickness vs saline (male SWISS mice [1]; 1.9 µmol kg^−1 s.c.): 12 ± 2%
Paw thickness (male SWISS mice [1]; 1.9 µmol/kg): 4.04 mm and 4.14 mm and 3.53 mm and 3.7 mm and 3.82 mm
reduction of paw thickness vs saline (male SWISS mice [1]; 3.8 µmol kg^−1 s.c.): 17 ± 3%
antagonism of anti-inflammatory effect by nor-BNI (male SWISS mice [1]; [8]): significantly reversed by pre-treatment with nor-BNI
Emax (mouse KOR, GαoB): 76 ± 6%
Emax (human KOR [2]): 30%
Formalin test (duration of pain behaviour) (male SWISS mice [3]; 0.8 µmol/kg): 234 s and 278 s and 189 s and 251 s and 382 s and 247 s
Formalin test (duration of pain behaviour) (male SWISS mice [3]; 1.9 µmol/kg): 208 s and 50 s and 189 s and 169 s and 167 s and 252 s
antagonism of antinociception by nor-BNI (male SWISS mice [3]; [8]): significantly reversed the antinociceptive response
antinociceptive ED50 (male SWISS mice [3]; s.c., male mice): 1.89 µmol/kg
effect on pain behavior (male SWISS mice [3]; s.c., male mice): dose-dependent reduction in the pain behavior
Emax (mouse KOR, Gαi3): 77 ± 3%
log (A'/A-1) (human MOR; log B -7): 1.45
log (A'/A-1) (human MOR; log B -7.5): 0.36
log (A'/A-1) (human MOR; log B -8): -0.07
average functional affinity (human MOR; from pA2): 13 nM
Schild linear regression slope (human MOR; vs DAMGO): 1.5
highest potency (mouse KOR, Gαz): picomolar range
Emax (human KOR WT): 35.3 ± 1.13%
Emax (human KOR H304A): 34.5 ± 1.18%
Emax (human KOR Y320A): 83.5 ± 4.81%
log (A'/A-1) (mouse MOR; log B -6.5): 2.497
log (A'/A-1) (mouse MOR; log B -7): 1.821
log (A'/A-1) (mouse MOR; log B -7.5): 1.578
log (A'/A-1) (mouse MOR; log B -8): 1.074
average functional affinity (mouse MOR): 0.8 nM
average functional affinity (mouse MOR; [9]): 0.794 nM
Schild linear regression slope (mouse MOR; vs DAMGO): 0.9
Emax (human KOR K227A [4]): 16.9 ± 2.26%
reduction of cAMP inhibition potency (human KOR D138A; D138A vs WT, authors' response): 17 fold
Emax (human KOR D138A; KOR D138A, normalized to salvinorin A): 105 ± 2.4%
Emax (human KOR F293A): 85.55 ± 0.78%
Emax (human KOR Q115A): 90.2 ± 1.46%
Emax (human KOR [5]): 83%
Emax (%) β-arrestin-2 (human KOR Y312A): devoid of arrestin recruitment
BRET-βarr2 recruitment (human KOR Y312A; Log [ligand] (M) -5, replicates): 0.2189 and 0.2059 and 0.2229 and 0.2169
BRET-βarr2 recruitment (human KOR Y312A; Log [ligand] (M) -7, replicates): 0.2499 (2×) and 0.2479 and 0.2279 and 0.2289 and 0.2269
BRET-βarr2 recruitment (human KOR Y312A; Log [ligand] (M) -8, replicates): 0.2479 and 0.2309 and 0.2579 and 0.2119 and 0.2179 and 0.2099
BRET-βarr2 recruitment (human KOR Y312A; Log [ligand] (M) -9, replicates): 0.2369 and 0.2529 and 0.2379 and 0.2309 and 0.2499 and 0.2069
BRET-βarr2 recruitment (human KOR Y312A; Log [ligand] (M) -10, replicates): 0.2429 and 0.2419 and 0.2489 and 0.2119 and 0.2309 and 0.2049
BRET-βarr2 recruitment (human KOR Y312A; Log [ligand] (M) -11, replicates): 0.2319 and 0.2289 and 0.2379 and 0.2249 and 0.2229 and 0.2019
BRET-βarr2 recruitment (human KOR Y312A; Log [ligand] (M) -12, replicates): 0.2219 and 0.2179 and 0.2429 and 0.2239 and 0.2299 and 0.2119
Emax (human KOR I135A): 45.8 ± 1.95%
Emax (mouse KOR): 92 ± 1%
Emax (human KOR E297A): 64.6 ± 1.35%
serum stability, amount remaining, Figure S15 ([6]; Time (min) 0): 100
stable in serum [6, 9]: at least 50 h
remaining at 5 min, 50 µM ([6]; human, human serum, serum stability, amount remaining, Figure S15, Time (min) 5): 94%
remaining at 10 min, 50 µM ([6]; human, human serum, serum stability, amount remaining, Figure S15, Time (min) 10): 94%
remaining at 20 min, 50 µM ([6]; human, human serum, serum stability, amount remaining, Figure S15, Time (min) 20): 99%
remaining at 40 min, 50 µM ([6]; human, human serum, serum stability, amount remaining, Figure S15, Time (min) 40): 96%
remaining at 1 h, 50 µM ([6]; human, human serum, serum stability, amount remaining, Figure S15, Time (min) 60): 106%
remaining at 2 h, 50 µM ([6]; human, human serum, serum stability, amount remaining, Figure S15, Time (min) 120): 98%
remaining at 4 h, 50 µM ([6]; human, human serum, serum stability, amount remaining, Figure S15, Time (min) 240): 101%
remaining at 6 h, 50 µM ([6]; human, human serum, serum stability, amount remaining, Figure S15, Time (min) 360): 99%
remaining at 24 h, 50 µM ([6]; human, human serum, serum stability, amount remaining, Figure S15, Time (min) 1440): 98%
remaining at 48 h, 50 µM ([6]; human, human serum, serum stability, amount remaining, Figure S15, Time (min) 2880): 96%
remaining at 48 h, 50 µM ([6]; human, human serum, serum stability, remaining intact, after 48 h, 37 °C): > 95%
Emax (human KOR K227A [7]): 47.9 ± 1.19%
Emax (human KOR M142A): 91.7 ± 11.6%
Emax (mouse KOR, Gαi1): 81%
